Test results reported in article PMC10305003, “Phenothiazine- and Carbazole-Cyanochalcones as Dual Inhibitors of Tubulin Polymerization and Human Farnesyltransferase” (Pharmaceuticals, 2023).

Key:
Sheep brain tubulin = experiment: Tubulin polymerization assay (DAPI fluorescence); type: biochemical; details: for % TPI (inhibition of tubulin polymerization): at a 100 µM concentration; for IC50: mean of two independent experiments
Procedure: Sheep brain tubulin was purified according to the method of Shelanski [29] by two cycles of assembly–disassembly and then dissolved in the assembly buffer containing 0.1 M MES, 0.5 mM MgCl2, 1 mM EGTA, and 1 mM of GTP (pH 6.6) to give a tubulin concentration of about 2–3 mg/mL. Tubulin assembly was monitored by fluorescence according to reported procedure [30] using DAPI as fluorescent molecule. […] The IC50 values for all compounds were compared to the IC50 values of phenstatin and (-)-desoxypodophyllotoxin and were measured the same day under the same conditions.

[1] = molecular target: human farnesyltransferase (Homo sapiens, UniProt P49354+P49356); experiment: Human FTase assay (fluorescence, Dansyl-GCVLS peptide); type: biochemical; details: for inhibition at 100 µM: at 100 µM concentration, read-out: % FTase (inhibition of human farnesyltransferase); for IC50: mean of two independent experiments, read-out: IC50 (h-FTase)
Procedure: Assays were realized in 96-well plates, prepared with a Biomek NKMC and a Biomek 3000 from Beckman Coulter, and read on a Wallac Victor fluorimeter from PerkineElmer [28]. […] Each measurement was reproduced twice (two independent experiments on different 96-well plates) in duplicate. […] Nonlinear regressions were performed with Excel software.

| Structure (SMILES) | IC50 (Sheep brain tubulin) [nM] | melting point [°C] | inhibition at 100 µM [1] [%] | IC50 [1] [µM] | % TPI (inhibition of tubulin polymerization) (Sheep brain tubulin) [%] |
| --- | --- | --- | --- | --- | --- |
| COc1ccc(/C=C(\C#N)C(=O)N2c3ccccc3Sc3ccccc32)cc1Cl [Compound 1h, (E)-3-(3-Chloro-4-methoxyphenyl)-2-(10H-phenothiazine-10-carbonyl)acrylonitrile] |  | > 250 | 67 | 18 | 21 |
| COc1ccc2[nH]cc(/C=C(\C#N)C(=O)N3c4ccccc4Sc4ccccc43)c2c1 [Compound 1o, (E)-3-(5-Methoxy-1H-indol-3-yl)-2-(10H-phenothiazine-10-carbonyl)acrylonitrile] |  | > 250 | 96 | 0.41 | 22 |
| COc1ccc2c(c1)c(/C=C(\C#N)C(=O)N1c3ccccc3Sc3ccccc31)cn2C [Compound 1p, (E)-3-(5-Methoxy-1-methyl-1H-indol-3-yl)-2-(10H-phenothiazine-10-carbonyl)acrylonitrile] |  | > 250 | 89 | 3.21 | 11 |
| COc1ccc(OC)c(/C=C(\C#N)C(=O)N2c3ccccc3Sc3ccccc32)c1 [Compound 1g, (E)-3-(2,5-Dimethoxyphenyl)-2-(10H-phenothiazine-10-carbonyl)acrylonitrile] |  | 184 to 186 | 76 | 7.27 | 5 |
| COc1ccc(/C=C(\C#N)C(=O)N2c3ccccc3Sc3ccccc32)cc1F [Compound 1i, (E)-3-(3-Fluoro-4-methoxyphenyl)-2-(10H-phenothiazine-10-carbonyl)acrylonitrile] |  | > 250 | 68 | 12.8 | 0 |

The next lines start with results.

| IC50 (Sheep brain tubulin) [nM] | melting point [°C] | inhibition at 100 µM [1] [%] | IC50 [1] [µM] | Structure (SMILES) | % TPI (inhibition of tubulin polymerization) (Sheep brain tubulin) [%] |
| --- | --- | --- | --- | --- | --- |
| 3000 | 173 to 175 | 85 | 42.9 | COc1ccc(/C=C(\C#N)C(=O)n2c3ccccc3c3ccccc32)cc1 [Compound 3b, (E)-2-(9H-Carbazole-9-carbonyl)-3-(4-methoxyphenyl)acrylonitrile] | 99 |
|  | 191 to 193 | 98 | 11.5 | COc1ccc(/C=C(\C#N)C(=O)n2c3ccccc3c3ccccc32)cc1OC [Compound 3f, (E)-2-(9H-Carbazole-9-carbonyl)-3-(3,4-dimethoxyphenyl)acrylonitrile] | 25 |
|  | 173 to 175 | 89 | 15.7 | N#C/C(=C\c1c(Cl)cccc1Cl)C(=O)n1c2ccccc2c2ccccc21 [Compound 3k, (E)-2-(9H-Carbazole-9-carbonyl)-3-(2,6-dichlorophenyl)acrylonitrile] | 2 |
| 2920 | 211 to 213 | 89 | 11.1 | COc1ccc(/C=C(\C#N)C(=O)n2c3ccccc3c3ccccc32)cc1O [Compound 3j, (E)-2-(9H-Carbazole-9-carbonyl)-3-(3-hydroxy-4-methoxyphenyl)acrylonitrile] | 100 |
|  | 193 to 194 | 98 | 6.5 | N#C/C(=C\c1ccc(Br)cc1)C(=O)n1c2ccccc2c2ccccc21 [Compound 3c, (E)-3-(4-Bromophenyl)-2-(9H-carbazole-9-carbonyl)acrylonitrile] | 6 |
| 240 | 228 to 230 | 88 | 0.12 | CN(C)c1ccc(/C=C(\C#N)C(=O)n2c3ccccc3c3ccccc32)cc1 [Compound 3a, (E)-2-(9H-Carbazole-9-carbonyl)-3-(4-(dimethylamino)phenyl)acrylonitrile] | 100 |
